Measured values published in PubChem BioAssay (NCI).
Values joined by “and” are separate entries in the source; they are usually repeats but may differ in a detail not shown here. Identical values can stand only once.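 Compound exposure: 48 hours, 5 concentrations, 96-well plates. Abbreviation: GI50, concentration required for 50% inhibition of growth. TGI is the concentration that stops growth completely.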

Assays:
Experiment in all cases: growth of human tumour cells (NCI), 48 h
CAKI-1 renal = test system: CAKI-1 renal
EKVX NSCLC = test system: EKVX NSCLC
IGROV1 ovarian = test system: IGROV1 ovarian
K-562 leukemia = test system: K-562 leukemia
KM12 colon = test system: KM12 colon
RXF 393 renal = test system: RXF 393 renal
SK-MEL-5 melanoma = test system: SK-MEL-5 melanoma
UACC-257 melanoma = test system: UACC-257 melanoma
UACC-62 melanoma = test system: UACC-62 melanoma
A498 renal = test system: A498 renal

Compound	TGI (CAKI-1 renal) [µM]	TGI (EKVX NSCLC) [µM]	TGI (IGROV1 ovarian)	TGI (K-562 leukemia)	TGI (KM12 colon) [µM]	TGI (RXF 393 renal) [µM]	TGI (SK-MEL-5 melanoma) [µM]	TGI (UACC-257 melanoma) [µM]	TGI (UACC-62 melanoma) [µM]	TGI (A498 renal) [µM]	GI50 (A498 renal) [µM]	GI50 (CAKI-1 renal) [µM]	GI50 (IGROV1 ovarian)	GI50 (K-562 leukemia)	GI50 (KM12 colon) [µM]	GI50 (UACC-62 melanoma) [µM]	GI50 (EKVX NSCLC) [µM]	GI50 (SK-MEL-5 melanoma) [µM]	GI50 (UACC-257 melanoma) [µM]
O=C(NCCCCCCO)c1cccc2cc3ccccc3nc12	36.1	32.8	35.7 µM	> 100 µM	33.9	37.7	32.9	33.9	35.2	–	–	–	–	–	–	–	–	–	–
NNC(=O)Cn1ccnn1	> 100	> 100	> 100 µM	> 100 µM	> 100	–	> 100	> 100	–	–	–	–	–	–	–	–	–	–	–
COc1cccc(NC(=O)CC(=O)N2N=C(C)C(N=Nc3ccc(C(=O)O)cc3)C2=O)c1 (stereo not given)	> 100	> 100	> 100 µM	> 100 µM	> 100	> 100	> 100	> 100	> 100	–	–	–	–	–	–	–	–	–	–
CC1(C)C=[N+]([O-])C(C)(C)N1O	> 10	> 10	–	> 10 µM	> 10	> 10	–	> 10	–	–	–	–	–	–	–	–	–	–	–
COC(=O)c1cc(C)ccc1C1CN=NC12Cc1c(C)cc(C)cc1C2=O (stereo not given)	> 100	> 100	> 100 µM	> 100 µM	39.1	72.5	31.6	69.7	49.6	–	–	–	–	–	–	–	–	–	–
COc1cccc(C23CCCC(C2)N(C)CC3OC(=O)c2ccccc2)c1OC (stereo not given)	> 100	72.7	37.4 µM	> 100 µM	61.3	–	27.4	> 100	84.5	> 100	–	–	–	–	–	–	–	–	–
Cc1ccc(/C=C2/NC(=S)SC2=O)cc1	51.1	> 100	> 100 µM	–	> 100	–	> 100	> 100	–	–	–	–	–	–	–	–	–	–	–
CC(C)(CN1CCCCC1)C(/C=C/c1ccccc1)=N\NC(=O)N/N=C(/C=C/c1ccccc1)C(C)(C)CN1CCCCC1	5.61	20.7	6.07 µM	2.81 µM	3.86	–	3.1	3.1	2.89	2.95	–	–	–	–	–	–	–	–	–
C=C(C)[C@@H]1CC[C@]2(CO)CC[C@]3(C)[C@H](CC[C@@H]4[C@@](C)(CCCN)[C@H](C(=C)C)CC[C@]43C)[C@@H]12	3.21	–	3.22 µM	4.59 µM	3.06	–	–	–	3.09	3.15	1.74	1.79	1.76 µM	1.55 µM	1.58	1.71	–	–	–
N#C/C(C(=O)Nc1ccccc1)=C(/N)N1CCCCC1	> 100	> 100	> 100 µM	> 100 µM	> 100	–	> 100	> 100	> 100	–	–	–	–	–	–	–	–	–	–
Cn1c(=O)n(CC2CS2)c2ccccc21 (stereo not given)	> 100	> 100	> 100 µM	> 100 µM	> 100	> 100	–	–	> 100	–	–	–	–	–	–	–	–	–	–
C=C(CCOC)CCC1CCCCC(=C)[C@H]1O (stereo not given in full)	> 100	> 100	> 100 µM	> 100 µM	> 100	–	> 100	> 100	> 100	> 100	–	–	–	–	–	–	–	–	–
CC1(C)[C@@H](OC(N)=O)C=C[C@]2(CO)[C@H]3CC[C@]4(C)[C@@H](c5ccc(=O)oc5)[C@@H](Cl)C[C@]4(O)C3=CC[C@@H]12	–	0.00806	0.0284 µM and 0.0829 µM	0.0188 µM and 0.0562 µM	0.0268	–	0.0158	0.029	0.013	0.0557	0.0122	–	0.00313 µM and 0.0025 µM	0.00354 µM and 0.0025 µM	0.00456	0.00358	< 0.0001	0.00269	0.012
COc1ccc2c(c1)C(=O)C1CCC(=O)N1C2c1ccc2c(c1)OCO2 (stereo not given)	71.8	40.2	32.5 µM	39.8 µM	22.2	–	24.9	40.4	29.9	38.1	–	–	–	–	–	–	–	–	–
COc1cc2oc(=O)cc(C)c2c(OC)c1OC(C)=O	–	> 100	> 100 µM	> 100 µM	> 100	–	> 100	> 100	> 100	> 100	–	–	–	–	–	–	–	–	–
COc1cc2oc(=O)cc(C)c2cc1OC	–	> 100	> 100 µM	> 100 µM	> 100	–	> 100	> 100	> 100	> 100	–	–	–	–	–	–	–	–	–
O=C(O)COc1cc(-c2ccccc2)nc2ccccc12	> 100	> 100	> 100 µM	> 100 µM	> 100	–	> 100	> 100	–	> 100	–	–	–	–	–	–	–	–	–
Cc1cn(CCOCCOC(=O)NC(CCCNC(N)=O)C(=O)O)c(=O)[nH]c1=O (stereo not given)	> 100	> 100	> 100 µM	> 100 µM	> 100	> 100	–	> 100	> 100	–	–	–	–	–	–	–	–	–	–
CCn1c(=O)c2c3ccc(OC(C)=O)cc3[nH]c2c2ccc(OC(C)=O)cc21	> 100	–	> 100 µM	> 100 µM	> 100	> 100	> 100	> 100	> 100	–	–	–	–	–	–	–	–	–	–
